Among the data in US20090131462A1, “Fungicidally Active Agent” (BASF AKTIENGESELLSCHAFT, priority 2005, published 2009) are Efficacy values, retold here.

This test concerns Pyrenophora teres. Description: Activity against net blotch of barley caused by Pyrenophora teres, 2-day protective application. It counts as in vivo. Particulars: individual active compound, barley seedlings cultivar Hanna, inoculated 48 hours after spraying, evaluated after 6 days. The protocol: The active compounds were used either as a commercial formulation or employed as a stock solution. The stock solution was prepared from 25 mg of active compound which had been made up to 10 ml using a mixture of acetone and/or DMSO as solvent and the emulsifier Uniperol® EL (wetting agent having emulsifying and dispersing action based on ethoxylated alkylphenols) in a volume ratio of solvent to emulsifier of 99:1. The volume was then made up to 100 ml using water.
Evaluation was carried out by visually determining the infected leaf areas in %. These percentages were converted into efficacies in % of the untreated control. At an efficacy of 0, the infection of the treated plants corresponds to that of the untreated control plants; at an efficacy of 100, the treated plants are not infected.
The expected efficacies for active compound combinations were determined using Colby's formula (Colby, S. R., “Calculating synergistic and antagonistic responses of herbicide combinations”, Weeds, 15, pp. 20-22, 1967) and compared to the observed efficacies.
Colby's formula: E=x+y−xy/100
E expected efficacy, expressed in % of the untreated control, when using the mixture of the active compounds A and B at the concentrations a and b x efficacy, expressed in % of the untreated control, when using the active compound A at the concentration a y efficacy, expressed in % of the untreated control, when using the active compound B at the concentration b Activity against net blotch of barley caused by Pyrenophora teres, 2-day protective application Leaves of potted barley seedlings of the cultivar “Hanna” were sprayed to runoff point with an aqueous suspension having the concentration of active compound stated below. 48 hours after the spray coating had dried on, the test plants were inoculated with an aqueous spore suspension of Pyrenophora teres (synonym Drechslera teres), the net blotch pathogen. […] After 6 days, the extent of the development of the disease was determined visually in % infection of the total leaf area.

Regarding `CC(C)CC(C)c1sccc1NC(=O)c1cn(C)nc1C(F)(F)F` (stereo not drawn) [compound A, N-[2-(1,3-dimethylbutyl)-3-thienyl]-1-methyl-3-(trifluoromethyl)-1H-pyrazole-4-carboxamide], the Efficacy reads like this: (4 ppm in the spray liquor, % of the untreated control) 22%; (concentration in the spray liquor printed as 0 ppm) 0.5%.
For the molecule metiram, the Efficacy (250 ppm in the spray liquor) was 0%.
